Reference: ChEMBL document CHEMBL1201862, “PubChem BioAssay data set” (2004)
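Interpolation was linear, between the two tested concentrations surrounding the appropriate level; five concentrations were tested over 48 hours in 96-well plates. Here, GI50 denotes the concentration required for 50% inhibition of growth.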 Calls of active or inactive are those of the source. Rule as the data show it: active = GI50 up to about 1.1 µM and inactive = higher.

Columns and labels:
Assay in all cases: DTP human tumour cell line panel, 48 h
[1] = tested on: NCI-H460
[2] = tested on: COLO 205
[3] = tested on: K562
[4] = tested on: HCT-116
[5] = tested on: SK-OV-3
[6] = tested on: HT-29
[7] = tested on: OVCAR-3
[8] = tested on: M14
[9] = tested on: CAKI-1
[10] = tested on: SK-MEL-5
[11] = tested on: BT-549
[12] = tested on: T47D
[13] = tested on: HOP-92
[14] = tested on: SF-295
[15] = tested on: KM12
[16] = tested on: TK-10
[17] = tested on: DU-145
[18] = tested on: PC-3
[19] = tested on: RPMI-8226
[20] = tested on: RXF 393

Measured: GI50

O=C1C=C(N2CCN(c3ncccn3)CC2)C(=O)c2c(O)ccc(O)c21
inactive: [1] > 100 µM | [2] > 100 µM | [3] > 100 µM | [4] 73.1 µM | [5] > 100 µM | [6] > 100 µM | [7] > 100 µM | [8] > 100 µM | [9] > 100 µM | [10] 21.5 µM | [11] > 100 µM | [12] > 100 µM | [13] > 100 µM | [14] > 100 µM | [15] > 100 µM | [16] > 100 µM | [17] > 100 µM | [18] > 100 µM

Brc1ccc(-c2nc(-c3ccc(Br)cc3)n(-c3ccccc3)n2)cc1
inactive: [1] > 100 µM | [2] 27.2 µM | [4] 38 µM | [5] > 100 µM | [6] 26.9 µM | [7] > 100 µM | [8] > 100 µM | [9] > 100 µM | [10] > 100 µM | [11] > 100 µM | [12] 12.9 µM | [13] > 100 µM | [14] > 100 µM | [15] 49.5 µM | [16] > 100 µM | [17] > 100 µM | [18] > 100 µM

CC(NS(C)(=O)=O)c1ccccc1 (stereo not given)
inactive: [19] > 100 µM | [1] > 100 µM | [20] > 100 µM | [2] > 100 µM | [3] > 100 µM | [4] > 100 µM | [5] > 10 µM | [6] > 100 µM | [7] > 100 µM | [8] > 100 µM | [9] > 100 µM | [10] > 100 µM | [11] > 100 µM | [12] > 100 µM | [14] > 100 µM | [15] > 100 µM | [16] > 100 µM | [17] > 100 µM | [18] > 100 µM

COc1cc(C(=O)O[C@@H]2[C@@H](OC(=O)c3cc(OC)c(OC)c(OC)c3)[C@@H](OC)O[C@@H]3CO[C@@H](c4ccccc4)O[C@@H]23)cc(OC)c1OC
inactive: [19] > 100 µM | [1] > 100 µM | [2] > 100 µM | [3] > 100 µM | [4] > 100 µM | [5] > 100 µM | [6] > 100 µM | [7] > 100 µM | [8] > 100 µM | [9] > 100 µM | [10] > 100 µM | [11] 50.4 µM | [12] > 100 µM | [13] > 100 µM | [14] > 100 µM | [15] > 100 µM | [16] > 100 µM | [17] > 100 µM | [18] > 100 µM

COc1c(OC)c(OC)c(C(=O)/C=C/c2ccccc2)c(OC)c1OC
inactive: [19] 3.6 µM | [1] 6.46 µM | [2] 14.2 µM | [3] 4.17 µM | [4] 6.11 µM | [5] 12.3 µM | [6] 4.47 µM | [7] 9.29 µM | [8] 12 µM | [9] 13.9 µM | [10] 13.5 µM | [11] 3.79 µM | [12] 9.02 µM | [13] 3.13 µM | [14] 12.4 µM | [15] 4.1 µM | [16] 12.8 µM | [17] 3.54 µM | [18] 8.67 µM

CN1CCN(/C(N)=C(\C#N)C(=O)Nc2ccccc2)CC1
inactive: [19] > 100 µM | [1] > 100 µM | [2] > 100 µM | [3] > 100 µM | [4] > 100 µM | [5] > 100 µM | [7] > 100 µM | [8] > 100 µM | [9] > 100 µM | [10] > 100 µM | [11] > 100 µM | [12] > 100 µM | [13] > 100 µM | [14] > 100 µM | [15] > 100 µM | [17] > 100 µM | [18] > 100 µM

NCCCCNCCCN1CCOC1=O
inactive: [19] > 100 µM | [1] > 100 µM | [2] > 100 µM | [3] > 100 µM | [4] > 100 µM | [5] > 100 µM | [6] > 100 µM | [7] > 100 µM | [8] > 100 µM | [9] > 100 µM | [10] > 100 µM | [11] > 100 µM | [12] > 100 µM | [14] > 100 µM | [15] > 100 µM | [16] 70.8 µM | [17] > 100 µM | [18] > 100 µM

COC(=O)C1CCC(=O)N1C(c1ccccc1)c1cc(OC)c(OC)c(OC)c1 (stereo not given)
inactive: [1] 43 µM | [20] > 100 µM | [2] 45.5 µM | [3] 21.8 µM | [4] 50 µM | [5] > 100 µM | [6] 29.4 µM | [7] 51.2 µM | [8] 43 µM | [9] 22.3 µM | [11] 92.7 µM | [12] 55.8 µM | [13] 99.3 µM | [14] 38.9 µM | [15] 45.8 µM | [16] > 100 µM | [17] > 100 µM | [18] 51.3 µM
